Assay results reported in article PMC6199744, “Development of Chemical Proteomics for the Folateome and Analysis of the Kinetoplastid Folateome” (ACS Infectious Diseases, 2018).

System: L. major lysate proteins
Experiment: Multitargeted bead mixture chemoproteomics, single concentration competition, proteome-wide
Assay type: binding
Details: for fold change / fold change relative to vehicle control: vehicle control = 1; for fold change relative to vehicle control: competition with free ligand

CCCCCCOc1cccc(Cc2cnc(N)nc2N)c1 [compound 2]
fold change vs vehicle control (protein LMJF.22.0730 HY[…], CONSERVED): 1.07
fold change (protein LMJF.22.1460 I/6 AUTOANTIGEN-LIKE PROTEIN): 1.1
fold change vs vehicle control (protein LMJF.22.1540 ALANYL-TRNA SYNTHETASE, PUTATIVE): 1.04
fold change vs vehicle control (protein LMJF.23.0370 […] OXIDASE SUBUNIT 10, PUTATIVE): 1.09
fold change (protein LMJF.23.0830 NA/H ANTIPORTER-LIKE PROTEIN): 0.96
fold change (protein LMJF.23.1020 HY[…], UNKNOWN FUNCTION): 1.14
fold change (protein LMJF.23.1220 T-COMPLEX PROTEIN 1, GAMMA SUBUNIT, PUTATIVE): 1.08
fold change vs vehicle control (protein LMJF.24.0140 ANKYRIN/TPR REPEAT PROTEIN): 1.09
fold change (protein LMJF.24.0280 DYNEIN INTERMEDIATE-CHAIN-LIKE PROTEIN): 0.94
fold change (protein LMJF.24.0770 MALIC ENZYME, PUTATIVE): 1.06
fold change relative to vehicle control (protein LMJF.24.1510 IGE-DEPENDENT HISTAMINE-RELEASING FACTOR, PUTATIVE): 1.53
fold change vs vehicle control (protein LMJF.24.1630, SUCCINATE DEHYDROGENASE FLAVOPROTEIN, PUTATIVE): 1
fold change vs vehicle control (protein LMJF.24.1840 LYSOPHOSPHOLIPASE, PUTATIVE): 1.01
fold change relative to vehicle control (protein LMJF.24.2060 TRANSKETOLASE): 0.99
fold change (protein LMJF.24.2250 FATTY-ACID DESATURASE, PUTATIVE): 1.01
fold change vs vehicle control (protein LMJF.25.0120 ELECTRON TRANSFER FLAVOPROTEIN, PUTATIVE): 1.07
fold change vs vehicle control (protein LMJF.25.0260 DYNEIN LIGHT CHAIN 1, CYTOPLASMIC, PUTATIVE): 1.15
fold change relative to vehicle control (protein LMJF.25.0910 CYCLOPHILIN A): 1.57
fold change vs vehicle control (protein LMJF.25.1180, ATPASE BETA SUBUNIT, PUTATIVE): 1.17
fold change (protein LMJF.25.1610 HY[…], CONSERVED): 1.09
fold change (protein LMJF.25.1620 HY[…], CONSERVED): 1.15
fold change vs vehicle control (protein LMJF.26.1240 HEAT SHOCK PROTEIN 70-RELATED PROTEIN): 1.01
fold change vs vehicle control (protein LMJF.26.1710 […] OXIDASE SUBUNIT V, PUTATIVE): 1.08
fold change vs vehicle control (protein LMJF.26.1960 HY[…], CONSERVED): 1.05
fold change vs vehicle control (protein LMJF.26.2000 HYPOTHETICAL PROTEIN, CONSERVED): 1.23
fold change vs vehicle control (protein LMJF.27.0420 RIBOKINASE, PUTATIVE): 1.18
fold change vs vehicle control (protein LMJF.27.1060 CYSTEINE DESULFURASE, PUTATIVE): 0.93
fold change (protein LMJF.27.1310 ARGINYL-TRNA SYNTHETASE, PUTATIVE): 0.98
fold change vs vehicle control (protein LMJF.27.2400 HEAT SHOCK PROTEIN DNAJ, PUTATIVE): 0.96
fold change vs vehicle control (protein LMJF.28.0110 […] 3 SUBUNIT, PUTATIVE): 1.07
fold change vs vehicle control (protein LMJF.28.0930 HY[…], CONSERVED): 1.12
fold change vs vehicle control (protein LMJF.28.0950 HY[…], CONSERVED): 1.03
fold change vs vehicle control (protein LMJF.28.1950 X-PRO, DIPEPTIDYL-PEPTIDASE,SERINE PEPTIDASE, CLAN SC, FAMILY S15, PUTATIVE): 1.13
fold change relative to vehicle control (protein LMJF.28.2770 HEAT-SHOCK PROTEIN HSP70, PUTATIVE): 1.25
fold change (protein LMJF.29.0060 TRYPTOPHANYL-TRNA SYNTHETASE, PUTATIVE): 1.06
fold change (protein LMJF.29.0820 CYSTEINE PEPTIDASE C (CPC)): 0.82
fold change relative to vehicle control (protein LMJF.29.0850 HIGH MOBILITY GROUP PROTEIN HOMOLOG TDP-1, PUTATIVE): 1.3
fold change vs vehicle control (protein LMJF.29.1160 TRYPAREDOXIN): 1.04
fold change (protein LMJF.29.1760 PARAFLAGELLAR ROD PROTEIN 1D, PUTATIVE): 0.97
fold change vs vehicle control (protein LMJF.29.1780 DIPHTHAMIDE SYNTHESIS PROTEIN, PUTATIVE): 0.98
fold change vs vehicle control (protein LMJF.29.2240 AMINOPEPTIDASE, PUTATIVE): 1.11
fold change (protein LMJF.29.2310 ENOYL-COA HYDRATASE/ISOMERASE-LIKE PROTEIN): 1.08
fold change (protein LMJF.29.2860 40S RIBOSOMAL PROTEIN S19-LIKE PROTEIN): 1.19
fold change vs vehicle control (protein LMJF.30.0850 SURFACE PROTEIN AMASTIN, PUTATIVE): 1.16
fold change (protein LMJF.30.1250 PYRIDOXAL KINASE, PUTATIVE): 1.01
fold change vs vehicle control (protein LMJF.30.3190 3-HYDROXY-3-METHYLGLUTARYL-COA REDUCTASE): 1.04
fold change vs vehicle control (protein LMJF.30.3520 S-ADENOSYL[…]): 1.05
fold change vs vehicle control (protein LMJF.31.0440 CYTOSKELETON-[…] CAP5 5, PUTATIVE): 1
fold change (protein LMJF.31.1130 N-ACYL-L-AMINO ACID AMIDOHYDROLASE, PUTATIVE): 0.8
fold change vs vehicle control (protein LMJF.31.1640 THIOLASE PROTEIN-LIKE PROTEIN): 1.14
fold change (protein LMJF.31.1800 AMINO ACID PERMEASE): 1.08
fold change (protein LMJF.31.2250 3,2-TRANS-ENOYL-COA ISOMERASE, MIT[…], PUTATIVE): 0.92
fold change vs vehicle control (protein LMJF.31.2790 ADP-RI[…], PUTATIVE): 1.1
fold change (protein LMJF.31.3130 […]-COA CARBOXYLASE BIOTINYLATED […]-LIKE PROTEIN): 1.03
fold change (protein LMJF.32.0010 HYPOTHETICAL PROTEIN, CONSERVED): 0.82
fold change vs vehicle control (protein LMJF.32.0400 ATP-DEPENDENT RNA HELICASE, PUTATIVE): 1.03
fold change vs vehicle control (protein LMJF.32.0520 PROFILIN, PUTATIVE): 1
fold change (protein LMJF.32.1000 […]-COMPLEX PROTEIN, PUTATIVE): 1.02
fold change vs vehicle control (protein LMJF.32.3010 HYPOTHETICAL PROTEIN, CONSERVED,LEUCINE-RICH REPEAT PROTEIN, PUTATIVE): 0.99
fold change vs vehicle control (protein LMJF.32.3870 MYOSIN XXI): 0.91
fold change vs vehicle control (protein LMJF.33.0890, HY[…], CONSERVED): 1.05
fold change vs vehicle control (protein LMJF.33.1070 HY[…], UNKNOWN FUNCTION): 1.03
fold change (protein LMJF.33.1330 CYSTEINE CONJUGATE BETA-LYASE, AMINOTRANSFERASE- LIKE PROTEIN): 1.33
fold change (protein LMJF.33.1610 PEPTIDASE M20/M25/M40, PUTATIVE): 1
fold change relative to vehicle control (protein LMJF.33.1630 CYCLOPHILIN 4, PUTATIVE): 1.35
fold change vs vehicle control (protein LMJF.33.2300 UDP-GLC 4'-EPIMERASE, PUTATIVE): 1.15
fold change vs vehicle control (protein LMJF.33.2390 HEAT SHOCK PROTEIN, PUTATIVE): 1.12
fold change (protein LMJF.33.2410 HY[…], CONSERVED): 1.02
fold change (protein LMJF.33.3150 40S RIBOSOMAL PROTEIN S13, PUTATIVE): 1.22
fold change (protein LMJF.34.3500 RUVB-LIKE 1 DNA HELICASE, PUTATIVE): 1.2
fold change (protein LMJF.34.3670 VACUOLAR ATP SYNTHASE CATALYTIC SUBUNIT A, PUTATIVE): 1.09
fold change (protein LMJF.34.3740 SERINE PALMITOYLTRANSFERASE-LIKE PROTEIN): 0.95
fold change (protein LMJF.34.4120 HYPOTHETICAL PROTEIN, CONSERVED): 0.91
fold change vs vehicle control (protein LMJF.34.4370 20S […] 7 SUBUNIT, (PUTATIVE)): 1.06
fold change (protein LMJF.35.0370 ATP-DEPENDENT DEAD-BOX RNA HELICASE, PUTATIVE): 1.03
fold change vs vehicle control (protein LMJF.35.1380, MIT[…], BETA SUBUNIT, PUTATIVE): 1.09
fold change vs vehicle control (protein LMJF.35.1410 THREONYL-TRNA SYNTHETASE, PUTATIVE): 0.97
fold change vs vehicle control (protein LMJF.35.1720 CYCLOPHILIN 14, PUTATIVE): 1.13
fold change (protein LMJF.35.2500 HY[…], CONSERVED): 1.03
fold change (protein LMJF.35.2730 ACYL-COA DEHYDROGENASE, PUTATIVE): 1.02
fold change relative to vehicle control (protein LMJF.35.3010 […],TRYPANOTHIONE-DEPENDENT […]): 1.16
fold change vs vehicle control (protein LMJF.35.3100 ATP-DEPENDENT RNA HELICASE, PUTATIVE): 1.09
fold change vs vehicle control (protein LMJF.35.3340 6-phosphogluconate dehydrogenase): 1.05
fold change (protein LMJF.35.3700 GIM5A PROTEIN, PUTATIVE,[…] PROTEIN): 1.04
fold change vs vehicle control (protein LMJF.35.3840 PROTEASOME BETA 2 SUBUNIT, PUTATIVE): 0.82
fold change vs vehicle control (protein LMJF.35.3860 T-COMPLEX PROTEIN 1, ETA SUBUNIT, PUTATIVE): 1.06
fold change (protein LMJF.35.4550 HYPOTHETICAL PROTEIN, CONSERVED): 0.88
fold change (protein LMJF.35.4770 CYCLOPHILIN 40): 0.93
fold change (protein LMJF.35.4850 PROTEASOME ALPHA 1 SUBUNIT, PUTATIVE): 1.1
fold change (protein LMJF.35.4860 HYPOTHETICAL PROTEIN, CONSERVED): 0.97
fold change relative to vehicle control (protein LMJF.35.5330 ISOPENTENYL-D[…]-ISOMERASE, PUTATIVE,ISOMERASE, PUTATIVE): 1.17
fold change vs vehicle control (protein LMJF.36.0180 ELONGATION FACTOR 2): 1.2
fold change vs vehicle control (protein LMJF.36.0620 HYPOTHETICAL PROTEIN, CONSERVED): 1.47
fold change vs vehicle control (protein LMJF.36.0990 40S RIBOSOMAL PROTEIN S10, PUTATIVE): 1.17
fold change vs vehicle control (protein LMJF.36.2020 CHAPERONIN HSP60, MIT[…]): 1.01
fold change vs vehicle control (protein LMJF.36.3460 HYPOTHETICAL PROTEIN, CONSERVED): 0.88
fold change (protein LMJF.36.3760 60S RIBOSOMAL PROTEIN L10A, PUTATIVE): 1.2
fold change vs vehicle control (protein LMJF.36.3840 GLYCYL TRNA SYNTHETASE, PUTATIVE): 1.06
fold change vs vehicle control (protein LMJF.36.4170 OXIDOREDUCTASE, PUTATIVE): 1.05
fold change vs vehicle control (protein LMJF.36.5010 40S RIBOSOMAL PROTEIN SA, PUTATIVE): 1.14
fold change (protein LMJF.36.5390 PHOSPHORIBOSYLPYROPHOSPHATE SYNTHETASE, PUTATIVE): 0.96
fold change vs vehicle control (protein LMJF.36.5620 ISOLEUCYL-TRNA SYNTHETASE, PUTATIVE): 1.15
fold change vs vehicle control (protein LMJF.36.6430 PROTEIN TRANSPORT PROTEIN SEC23-LIKE PROTEIN): 1.05
fold change (protein LMJF.36.6760 HYPOTHETICAL PROTEIN, CONSERVED): 1.1
fold change vs vehicle control (protein LMJF.36.6910 T-COMPLEX PROTEIN 1, THETA SUBUNIT, PUTATIVE): 1.05
fold change vs vehicle control (protein LMJF.36.6940 disulfide isomerase PDI): 1.3
fold change vs vehicle control (protein LMJF.[…] […] EXOPOLYPHOSPHATASE, PUTATIVE): 0.78
